Our source for the DC50, Dmax and IC50 values is patent US20220348595A1, “COMPOUNDS AND METHODS FOR THE TARGETED DEGRADATION OF ESTROGEN RECEPTORS” (Endotarget Inc., priority 2021, published 2022).

Holding throughout (type): cell-based
The target of one test is T1, ERα (Homo sapiens, UniProt P03372).
T1 construct: endogenous in cells; host or cells: MCF-7
T1 sequence (P03372 1-595): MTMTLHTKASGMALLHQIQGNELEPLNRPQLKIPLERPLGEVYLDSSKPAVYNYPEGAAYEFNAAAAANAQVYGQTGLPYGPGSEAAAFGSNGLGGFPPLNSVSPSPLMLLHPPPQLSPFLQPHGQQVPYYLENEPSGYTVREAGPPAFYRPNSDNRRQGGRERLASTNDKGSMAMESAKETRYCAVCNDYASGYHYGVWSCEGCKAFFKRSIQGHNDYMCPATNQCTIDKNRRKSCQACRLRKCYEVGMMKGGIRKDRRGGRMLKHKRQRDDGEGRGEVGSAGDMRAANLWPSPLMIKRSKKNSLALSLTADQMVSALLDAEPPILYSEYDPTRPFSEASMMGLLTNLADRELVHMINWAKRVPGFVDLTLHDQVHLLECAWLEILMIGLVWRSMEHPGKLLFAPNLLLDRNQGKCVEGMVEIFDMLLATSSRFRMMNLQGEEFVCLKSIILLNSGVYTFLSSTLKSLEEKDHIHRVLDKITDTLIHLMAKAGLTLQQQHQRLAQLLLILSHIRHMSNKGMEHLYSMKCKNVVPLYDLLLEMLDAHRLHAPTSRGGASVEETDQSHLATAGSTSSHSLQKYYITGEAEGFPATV
Put plainly: ER degradation in MCF-7 cells (Western blot). The following applies: for DC50: ER degradation, 24 hours; for Dmax: MCF7, Maximal ER degradation, read-out: Dmax. Here is the method:
Degradation of ER in MCF-7 Breast Cancer Cells by Exemplary Compounds of the Present Disclosure
MCF-7 cells were plated in 24-well plates at a density of 10^5 cells/well. Media containing various drug concentrations were added on the day following plating (day 0) and allowed to incubate for 24 hours for Western blot. Media with the tested compound was changed every other day. Cells were lysed, snapped frozen in liquid nitrogen, and stored at −80° C. until assay for ERα. Media were removed and dishes were washed with 1× DPBS. Lysates were made by adding 150 μL of complete lysis solution and scraping cells into a 1.5 mL microcentrifuge tube. Lysates were placed on a rotisserie at 4° C. for 30 min and then spun at 4° C. at 12000 rcf for 10 min. Supernatants were assayed for protein content, snap-frozen, and stored a −80° C. if not run immediately. Then 50 μg of protein was subjected to Western blot protocol. Membranes were blocked and then incubated with 1:200 dilution of ERα antibody at 4° C. overnight followed by 1:10000 dilution of secondary antibody for 1 h at room temperature. They were then imaged on a LICOR infrared scanner.
FIGS. 1 to 10 show the ER degradation efficacy of compounds 3, 5, 9, 11, 12, 16, 18, 19, 20, 21, 23, 24, 25, 26, 27, 28, 29, 30, 31, 32, 33, 34, 37, 38, and 40 in MCF-7 cells at various concentrations. Degradation of ER was expressed as an DC50 value and was determined for exemplary compounds in Table 1 by calculation of the concentration of compound that was required to give a 50% reduction of ER expression level. Maximal degradation of ER was expressed as a Dmax value by measuring the highest percentage of ER reduction achieved by exemplary compound in the treatment concentration range.
A general note: Immunoblotting shows a protein as a band on a membrane.

For test [1], the system named is MCF-7 breast cancer cells. In words: MCF-7 proliferation / cell viability assay. Conditions: MCF-7 proliferation with 0.1 nM 17-beta estradiol, read-out: IC50 (anti-proliferation). The procedure:
The Anti-Proliferative Activities of the Exemplary Compounds were Assessed by a Cell Viability Assay in MCF-7 Breast Cancer Cells
MCF-7 cells were plated in six-well plates at a density of 50,000 each well in 5% FBS DMEM medium. The cells were then treated with exemplary compounds or fulvestrant separately at 6 different doses ranging from 10^−10 M to 10^−5 M for 5 days, while equal volumes of DMSO were used as vehicle controls. Viable cell numbers were counted with a Z Series Coulter Counter instrument (Beckman-Coulter) following manufacturer's instructions. The ratio of drug treated viable cell numbers to vehicle treated viable cell numbers was defined as survival ratio where the control has the survival ratio of 100%.

A further test addresses T2, ER (Homo sapiens, UniProt P03372).
T2 construct: endogenous in cells; host or cells: T47d-kb-Luc (T47D stably transfected with a luciferase reporter gene only)
T2 sequence (P03372 1-595): T1 sequence (P03372 1-595)
Put plainly: ER antagonism (T47D ERE luciferase), T47d-kb-Luc cells. The following applies: read-out: IC50 (ER antagonistm). Here is the method: The Antiestrogenic Activity of the Exemplary Compounds was Assessed in T47d-kb-Luc Stably Transfected Human Breast Cancer Cell
Antagonist activities were measured by the compound's ability to inhibit the activity of estradiol, the natural estrogen. Data were then normalized relative to the activity of the estradiol control and determinations were performed for five concentrations of the samples in quadruplicate in at least three separate experiments.

Where two headings read alike, the source gives them in different places.

`CC/C(=C(/c1ccc(OCCN2CCN(CCCNc3ccc4c(c3)C(=O)N(C3CCC(=O)NC3=O)C4=O)CC2)cc1)c1ccc(B(O)O)cc1)c1ccccc1` (centres unmarked) [Compound 15, (Z)-(4-(1-(4-(2-(4-(3-((2-(2,6-dioxopiperidin-3-yl)-1,3-dioxoisoindolin-5-yl)amino)propyl)piperazin-1-yl)ethoxy)phenyl)-2-phenylbut-1-en-1-yl)phenyl)boronic acid]: at ERα, the 50% degradation concentration (DC50) fell in the range of 10 to 50 nM and the Dmax is greater than 75%. In test [1] (Homo sapiens, MCF7), the IC50 is 10 to 50 nM. Further, on ER, the IC50 fell in the range of 10 to 50 nM.

Take `CC/C(=C(/c1ccc(O)cc1)c1ccc(N2CCN(C(=O)N3CCC(N4CCN(c5ccc6c(c5)CN(C5CCC(=O)NC5=O)C6=O)CC4)CC3)CC2)cc1)c1ccccc1` (centres unmarked) [Compound 111, (Z)-3-(5-(4-(1-(4-(4-(1-(4-hydroxyphenyl)-2-phenylbut-1-en-1-yl)phenyl)piperazine-1-carbonyl)piperidin-4-yl)piperazin-1-yl)-1-oxoisoindolin-2-yl)piperidine-2,6-dione]: on ERα, the DC50 is 10 to 50 nM and the Dmax was greater than 90%. The IC50 in test [1] (Homo sapiens, MCF7) lay in the range of 10 to 50 nM. For the same molecule, at ER, the IC50 was less than 10 nM.

On to `CC/C(=C(\c1ccc(B(O)O)cc1)c1ccc(N2CCN(CCCN3CCN(c4ccc5c(c4)C(=O)N(C4CCC(=O)NC4=O)C5=O)CC3)CC2)cc1)c1ccccc1` (centres unmarked) [Compound 43, (Z)-(4-(1-(4-(4-(3-(4-(2-(2,6-dioxopiperidin-3-yl)-1,3-dioxoisoindolin-5-yl)piperazin-1-yl)propyl)piperazin-1-yl)phenyl)-2-phenylbut-1-en-1-yl)phenyl)boronic acid], for which, at ERα, the DC50 is less than 10 nM and the Dmax was greater than 90%. Besides, in test [1] (Homo sapiens, MCF7), the IC50 is less than 10 nM. Further, at ER, the IC50 lay within 10 to 50 nM.

`CC/C(=C(/c1ccc(B(O)O)cc1)c1ccc(N2CCN(C(=O)N3CCC(CN4CCN(c5ccc6c(c5)CN(C5CCC(=O)NC5=O)C6=O)CC4)CC3)CC2)cc1)c1ccccc1` (centres unmarked) [Compound 116, (E)-(4-(1-(4-(4-(4-((4-(2-(2,6-dioxopiperidin-3-yl)-1-oxoisoindolin-5-yl)piperazin-1-yl)methyl)piperidine-1-carbonyl)piperazin-1-yl)phenyl)-2-phenylbut-1-en-1-yl)phenyl)boronic acid]: at ERα, the DC50 is less than 10 nM and the Dmax is greater than 90%. For the same molecule, in test [1] (Homo sapiens, MCF7), the IC50 is less than 10 nM. Besides, the IC50 on ER is less than 10 nM.

`CC/C(=C(/c1ccc(O)cc1)c1ccc(OCCN2CCN(C(=O)N3CCN(c4ccc5c(c4)CN([C@@H]4CCC(=O)NC4=O)C5=O)CC3)CC2)cc1)c1ccccc1` [Compound 82]: at ERα, the DC50 was less than 10 nM and the Dmax was greater than 90%. Also, the IC50 in test [1] (Homo sapiens, MCF7) was less than 10 nM. Further, the IC50 at ER is less than 10 nM.

Consider `CC/C(=C(\c1ccc(OCCN2CCN(C(=O)N3CCC(N4CCN(c5ccc6c(c5)CN(C5CCC(=O)NC5=O)C6=O)CC4)CC3)CC2)cc1)c1ccc(B(O)O)cc1)c1ccccc1` (centres unmarked) [Compound 96, (E)-(4-(1-(4-(2-(4-(4-(4-(2-(2,6-dioxopiperidin-3-yl)-1-oxoisoindolin-5-yl)piperazin-1-yl)piperidine-1-carbonyl)piperazin-1-yl)ethoxyl)phenyl)-2-phenylbut-1-en-1-yl)phenyl)boronic acid], for which, at ERα, the DC50 lay within 10 to 50 nM. Moreover, on ERα, the Dmax is greater than 90%. In addition, the IC50 is less than 10 nM in test [1] (Homo sapiens, MCF7) and less than 10 nM on ER.

As for `CC/C(=C(\c1ccc(OCCCCCN2CCN(c3ccc4c(c3)CN(C3CCC(=O)NC3=O)C4=O)CC2)cc1)c1ccc(B(O)O)cc1)c1ccccc1` (centres unmarked) [Compound 36], the DC50 on ERα lay within 10 to 50 nM. Moreover, at ERα, the Dmax was greater than 90%. The IC50 in test [1] (Homo sapiens, MCF7) was in the range of 10 to 50 nM; at ER, 10 to 50 nM.

Consider `CC/C(=C(\c1ccc(OCCN2CCN(C(=O)N3CCN(c4ccc5c(c4)CN([C@H]4CCC(=O)NC4=O)C5=O)CC3)CC2)cc1)c1ccc(B(O)O)cc1)c1ccccc1` [Compound 87, (S,E)-(4-(1-(4-(2-(4-(4-(2-(2,6-dioxopiperidin-3-yl)-1-oxoisoindolin-5-yl)piperazine-1-carbonyl)piperazin-1-yl)ethoxy)phenyl)-2-phenylbut-1-en-1-yl)phenyl)boronic acid], for which, at ERα, the DC50 was less than 10 nM and the Dmax is greater than 90%. For the same molecule, the IC50 in test [1] (Homo sapiens, MCF7) was less than 10 nM. On ER, the IC50 was less than 10 nM.

In turn, `CCC(=C(c1ccc(OCCN2CCN(CC3CCN(c4ccc5c(c4)C(=O)N(C4CCC(=O)NC4=O)C5=O)CC3)CC2)cc1)c1ccc(B(O)O)cc1)c1ccccc1` (stereo in doubt) [Compound 18, (E)-(4-(1-(4-(2-(4-((1-(2-(2,6-dioxopiperidin-3-yl)-1,3-dioxoisoindolin-5-yl)piperidin-4-yl)methyl)piperazin-1-yl)ethoxy)phenyl)-2-phenylbut-1-en-1-yl)phenyl)boronic acid] registered a DC50 at ERα of less than 10 nM. In addition, the IC50 (in test [1]; on ER) was 10 to 50 nM each time.

As to `CC/C(=C(\c1ccc(O)cc1)c1ccc(N2CCN(C(=O)N3CCC(CN4CCN(c5ccc6c(c5)CN(C5CCC(=O)NC5=O)C6=O)CC4)CC3)CC2)cc1)c1ccccc1` (centres unmarked) [Compound 113, (E)-3-(5-(4-((1-(4-(4-(1-(4-hydroxyphenyl)-2-phenylbut-1-en-1-yl)phenyl)piperazine-1-carbonyl)piperidin-4-yl)methyl)piperazin-1-yl)-1-oxoisoindolin-2-yl)piperidine-2,6-dione], the DC50 at ERα was less than 10 nM. For the same molecule, the Dmax at ERα was greater than 90%. Further, the IC50 in test [1] (Homo sapiens, MCF7) was less than 10 nM; at ER it was less than 10 nM.

Turning to `CC/C(=C(/c1ccc(B(O)O)cc1)c1ccc(N2CCN(CCCN3CCN(c4ccc5c(c4)CN(C4CCC(=O)NC4=O)C5=O)CC3)CC2)cc1)c1ccccc1` (centres unmarked) [Compound 46, (E)-(4-(1-(4-(4-(3-(4-(2-(2,6-dioxopiperidin-3-yl)-1-oxoisoindolin-5-yl)piperazin-1-yl)propyl)piperazin-1-yl)phenyl)-2-phenylbut-1-en-1-yl)phenyl)boronic acid], at ERα, the DC50 is less than 10 nM and the Dmax is greater than 90%. In addition, the IC50 in test [1] (Homo sapiens, MCF7) fell in the range of 10 to 50 nM. The IC50 at ER was less than 10 nM.

As to `CC/C(=C(\c1ccc(B(O)O)cc1)c1ccc(N2CCN(CCN3CCN(c4ccc5c(c4)CN(C4CCC(=O)NC4=O)C5=O)CC3)CC2)cc1)c1ccccc1` (centres unmarked) [Compound 61, (Z)-(4-(1-(4-(4-(2-(4-(2-(2,6-dioxopiperidin-3-yl)-1-oxoisoindolin-5-yl)piperazin-1-yl)ethyl)piperazin-1-yl)phenyl)-2-phenylbut-1-en-1-yl)phenyl)boronic acid], at ERα, the DC50 was less than 10 nM and the Dmax is greater than 90%. The IC50 in test [1] (Homo sapiens, MCF7) lay within 10 to 50 nM. Besides, the IC50 on ER lay within 10 to 50 nM.

The term DC50 denotes the midpoint of the concentration-degradation curve. The low end stands for a more potent degrader, the high end for a less potent degrader. Broadly, the Dmax is the greatest extent of degradation seen.
